# Reference: patent publication US20170340693A1, “DISLODGEMENT AND RELEASE OF HSC USING ALPHA 9 INTEGRIN ANTAGONIST AND CXCR4 ANTAGONIST” (COMMONWEALTH SCIENTIFIC AND INDUSTRIAL RESEARCH ORGANISATION, priority 2014, published 2017)
# Key:
# [1] = system: cord blood (CB) mononuclear cells (MNC); test: R-BC154 (IXb) binding to cord blood mononuclear cell populations, flow cytometry; format: cell-based, human; conditions: 1 mM Ca2+/Mg2+
# Method: (§1) For in vitro labelling experiments, 5×10^6 BM cells from C57 mice, conditional α4^−/−/α9^−/− mice and humanised NODSCIDIL2Rγ^−/− mice and human cord blood MNCs were treated with R-BC154 (IXb) (up to 300 nM) in PBS (0.5% BSA) or TBS (0.5% BSA) containing either 1 mM CaCl2/MgCl2 (activating) or 10 mM EDTA (deactivating) at 40×10^6 cells/ml for 20 mins at 4° C. Cells were washed with cold PBS (2% FBS) and then immunolabelled as described in “Antibody Cocktails” prior to flow cytometric analysis. For in vivo experiments, C57BL/6 mice, α4^−/−/α9^−/− vav-cre mice and humanised NODSCIDIL2Rγ^−/− mice received either intravenous or subcutaneous injections of R-BC154 (IXb) (5-10 mg/kg) at 100 ul/10 gm mouse weight and analysed as described above.
# (§2) For the assessment of α9β1 contribution to R-BC154 (IXb) binding, human and murine cells were stained with R-BC154 (100 nM) in the absence of competing antagonist or in the presence of excess amounts of the selective α4β1 antagonist BIO5192 (1 μM) or dual α4β1/α9β1 antagonist BOP (1 μM) in PBS containing 0.5% BSA and 1 mM CaCl2MgCl2 at 0° C. for 30 min. Cells were washed, immunolabelled as described above and analysed by flow cytometry. The contribution of α9β1 binding was calculated by measuring the difference in MFI between R-BC154 (IXb)+BIO5192 and +BOP and expressed as a % of R-BC154 (IXb) alone.
# [2] = system: HSC and progenitors isolated from human BM; test: R-BC154 (IXb) binding to human BM cells; format: cell-based; conditions: Ca2+/Mg2+
# Method: as §2
# [3] = system: human BM committed cells, progenitors and HSC of huNSG mice; test: R-BC154 (IXb) binding to humanized NSG (huNSG) BM; format: cell-based; conditions: Ca2+/Mg2+
# Method: as §1, §2
# [4] = system: bone marrow progenitor cells (LSK) and HSC (LSKSLAM); test: In vivo bone marrow binding assay; conditions: 10 mg kg−1 intravenously, versus un-injected mice
# Method: R-BC154 (IXb) in PBS (10 mg kg-1) was injected intravenously into C57 mice. After 5 min, bone marrow cells were isolated as previously described in D. N. Haylock et at Stem Cells, 2007, 25, 1062-1069 and J. Grassinger, et al Cytokine, 2012, 58, 218-225. Briefly, one femur, tibia and iliac crest were excised and cleaned of muscle. After removing the epi- and metaphyseal regions, bones were flushed with PBS-2% FBS to obtain whole bone marrow, which were washed with PBS-2% FBS and then immunolabelled for flow cytometry. For analysis of R-BC154 (IXb) binding, the following antibody combinations were chosen to minimise emission spectra overlap. […]
# To assess whether R-BC154 (IXb) and this class of N-phenylsulfonyl proline-based peptidomimetics could bind directly to HSC, R-BC154 (IXb) (10 mg kg^−1) was injected intravenously into mice and analysed for R-BC154 (IXb) labelling of phenotypically defined bone marrow progenitor cells (LSK cell; lineage-Sca-1+c-Kit+) and HSC (LSKSLAM cell; LSKCD48-CD150+) using multi-colour flow cytometry. […] Furthermore, in vivo R-BC154 (IXb) binding was also confirmed by fluorescence microscopy on purified populations of progenitor cells (Lineage-Sca-1+c-Kit+).
# [5] = system: progenitors (LSK) and HSC (LSKSLAM) in peripheral blood; test: HSC mobilization to peripheral blood in mice; format: in vivo; conditions: single agent, single dose
# Method: For mobilization experiments, all mice received subcutaneous injections at 100 μl/10 gm body weight and PB was harvested by throat bleed using EDTA coated syringes.
# (a) R-BC154 (IXb) and BOP. Mice received a single injection of freshly prepared solutions of R-BC154 (IXb) and BOP in saline at the doses indicated before PB was harvested by throat bleed at the times indicated.
# (b) G-CSF. Mice received G-CSF at 250 μg/kg twice daily (500 ug/kg/day), 6-8 hours apart for 4 consecutive days. Groups receiving G-CSF and BOP received the standard G-CSF regime as described above followed by a single injection of BOP 1 h prior to harvest. Control mice received an equal volume of saline.
# Mice received subcutaneous injections at 100 μl/10 gm body weight of a single injection of BOP (up to 15 mg/kg) for various timeframes, a single BIO5192 injection at 1 mg/kg for 1 hour, a single AMD3100 injection at 3 mg/kg for 1 hour (mice also receiving BOP or BIO15192 were injected with a single dose of BOP or BIO15192 1 hour prior to harvest), or G-CSF at 250 μg/kg twice daily (500 μg/kg/day), 6-8 hours apart for 4 consecutive days (mice also receiving BOP and/or AMD3100 were injected with a single dose of BOP and/or AMD3100 1 h prior to harvest). Control mice received an equivalent volume of saline or 10% HPβCD/saline where appropriate.
# [6] = target: α4β1 integrin (Homo sapiens, UniProt P05556+P13612); test: In vitro (saturation) binding of R-BC154; design: expressed in transfected cells; host or cells: LN18 (ATCC CRL-2610), retrovirally transduced; conditions: in vitro binding data
# Chain of α4β1 integrin (P13612 34-1032): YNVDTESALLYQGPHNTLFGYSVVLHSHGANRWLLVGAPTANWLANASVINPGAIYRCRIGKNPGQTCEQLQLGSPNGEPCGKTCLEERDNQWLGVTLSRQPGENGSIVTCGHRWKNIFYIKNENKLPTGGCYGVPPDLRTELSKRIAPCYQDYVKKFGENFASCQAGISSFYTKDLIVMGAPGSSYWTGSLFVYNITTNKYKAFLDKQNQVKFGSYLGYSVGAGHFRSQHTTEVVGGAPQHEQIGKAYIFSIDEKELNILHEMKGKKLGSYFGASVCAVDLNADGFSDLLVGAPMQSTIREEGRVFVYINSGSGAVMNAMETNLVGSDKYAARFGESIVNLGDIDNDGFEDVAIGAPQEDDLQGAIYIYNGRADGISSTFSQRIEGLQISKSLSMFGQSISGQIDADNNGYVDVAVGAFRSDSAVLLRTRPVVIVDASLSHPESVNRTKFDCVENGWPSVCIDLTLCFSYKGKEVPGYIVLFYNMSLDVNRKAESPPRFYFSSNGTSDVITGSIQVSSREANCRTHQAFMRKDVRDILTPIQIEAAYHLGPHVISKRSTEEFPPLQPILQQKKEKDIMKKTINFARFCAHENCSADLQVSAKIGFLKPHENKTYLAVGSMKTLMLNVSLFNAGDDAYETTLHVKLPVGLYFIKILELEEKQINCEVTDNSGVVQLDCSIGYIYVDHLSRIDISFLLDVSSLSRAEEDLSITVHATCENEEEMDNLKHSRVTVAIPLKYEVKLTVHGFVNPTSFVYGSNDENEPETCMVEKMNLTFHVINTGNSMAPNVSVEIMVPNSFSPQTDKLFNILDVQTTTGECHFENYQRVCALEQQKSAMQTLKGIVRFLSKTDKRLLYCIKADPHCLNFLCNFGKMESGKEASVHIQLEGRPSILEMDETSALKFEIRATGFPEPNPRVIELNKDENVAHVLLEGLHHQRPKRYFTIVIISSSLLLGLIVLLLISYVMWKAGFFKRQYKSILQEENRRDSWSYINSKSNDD
# Chain of α4β1 integrin (P05556 21-798): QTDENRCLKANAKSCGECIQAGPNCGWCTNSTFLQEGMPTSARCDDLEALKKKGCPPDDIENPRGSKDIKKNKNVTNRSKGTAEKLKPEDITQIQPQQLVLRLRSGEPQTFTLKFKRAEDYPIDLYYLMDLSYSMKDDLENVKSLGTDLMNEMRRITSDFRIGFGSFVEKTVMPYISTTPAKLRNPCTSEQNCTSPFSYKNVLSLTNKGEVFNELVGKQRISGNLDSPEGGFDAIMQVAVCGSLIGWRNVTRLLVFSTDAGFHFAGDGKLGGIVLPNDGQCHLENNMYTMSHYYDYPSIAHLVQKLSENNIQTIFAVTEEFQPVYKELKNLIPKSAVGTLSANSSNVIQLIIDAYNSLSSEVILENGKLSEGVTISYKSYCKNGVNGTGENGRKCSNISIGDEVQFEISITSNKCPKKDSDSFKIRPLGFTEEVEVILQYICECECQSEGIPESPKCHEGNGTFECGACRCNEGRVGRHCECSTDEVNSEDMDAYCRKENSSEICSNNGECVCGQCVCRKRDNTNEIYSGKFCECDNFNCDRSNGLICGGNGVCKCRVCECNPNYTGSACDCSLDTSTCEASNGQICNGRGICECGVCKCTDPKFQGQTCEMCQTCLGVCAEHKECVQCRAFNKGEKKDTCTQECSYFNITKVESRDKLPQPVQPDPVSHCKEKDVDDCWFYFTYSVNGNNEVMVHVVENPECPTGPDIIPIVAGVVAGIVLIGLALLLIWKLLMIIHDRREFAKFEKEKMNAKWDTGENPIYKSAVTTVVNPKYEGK
# Method: (§3) Cultured α4β1, α9β1 and control LN18 cells (0.5×10^6 cells) were treated with 100 μl of compound (R-BC154) at 0, 1, 3, 10, 30 and 100 nM in TBS-2% FBS (containing either no cations, 1 mM CaCl2—MgCl2 or 1 mM MnCl2). The cells were incubated at 37° C. for 60 min, washed once with TBS-2% FBS, dry pelleted and resuspended in the relevant binding buffer for flow cytometric analysis. Mean channel fluorescence was plotted against concentration and fitted to a one-site saturation ligand binding curve using GraphPad Prism 6. The dissociation constant, Kd was determined from the curves.
# [7] = target: α9β1 integrin (Homo sapiens, UniProt P05556+Q13797); test: In vitro (saturation) binding of R-BC154; design: expressed in transfected cells; host or cells: LN18 (ATCC CRL-2610), retrovirally transduced; endogenous α4 silenced with pSM2c-shITGA4; conditions: in vitro binding data
# Chain of α9β1 integrin (Q13797 30-1035): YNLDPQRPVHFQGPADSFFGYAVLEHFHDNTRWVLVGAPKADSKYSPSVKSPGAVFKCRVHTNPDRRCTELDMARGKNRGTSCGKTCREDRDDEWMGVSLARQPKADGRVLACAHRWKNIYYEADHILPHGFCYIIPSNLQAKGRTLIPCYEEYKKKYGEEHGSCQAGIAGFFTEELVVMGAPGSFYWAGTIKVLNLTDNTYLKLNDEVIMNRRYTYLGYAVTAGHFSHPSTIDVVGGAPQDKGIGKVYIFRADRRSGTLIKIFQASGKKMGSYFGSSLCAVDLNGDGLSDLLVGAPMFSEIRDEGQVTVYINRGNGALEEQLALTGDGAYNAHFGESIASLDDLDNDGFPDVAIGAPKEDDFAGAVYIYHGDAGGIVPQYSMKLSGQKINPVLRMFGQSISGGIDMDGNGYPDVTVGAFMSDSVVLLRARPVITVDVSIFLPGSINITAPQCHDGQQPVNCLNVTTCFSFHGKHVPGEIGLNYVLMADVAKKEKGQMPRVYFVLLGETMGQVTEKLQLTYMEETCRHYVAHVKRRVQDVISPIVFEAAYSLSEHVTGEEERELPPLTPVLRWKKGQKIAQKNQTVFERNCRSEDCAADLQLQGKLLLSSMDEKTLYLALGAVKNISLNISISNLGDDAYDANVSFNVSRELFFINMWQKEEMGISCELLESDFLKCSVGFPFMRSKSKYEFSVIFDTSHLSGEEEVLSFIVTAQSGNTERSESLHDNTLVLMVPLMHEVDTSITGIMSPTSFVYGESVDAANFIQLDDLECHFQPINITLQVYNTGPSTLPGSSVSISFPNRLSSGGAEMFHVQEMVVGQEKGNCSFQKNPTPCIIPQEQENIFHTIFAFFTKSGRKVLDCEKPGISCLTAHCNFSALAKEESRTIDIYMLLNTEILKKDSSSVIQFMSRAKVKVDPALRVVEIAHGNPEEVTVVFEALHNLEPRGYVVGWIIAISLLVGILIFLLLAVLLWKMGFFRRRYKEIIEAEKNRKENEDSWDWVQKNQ
# Chain of α9β1 integrin (P05556 21-798): as the sequence (P05556 21-798) above
# Method: as §3
structure (smiles),measurement,setting,value
CCN(CC)c1ccc2c(-c3ccc(S(=O)(=O)NCc4cn(C5C[C@@H](C(=O)N[C@@H](Cc6ccc(OC(=O)N7CCCC7)cc6)C(=O)O)N(S(=O)(=O)c6ccccc6)C5)nn4)cc3S(=O)(=O)[O-])c3ccc(=[N+](CC)CC)cc-3oc2c1 (some centres unmarked) [R-BC154 (IXb)],binding to CB HSC (CD34+CD38−) and progenitors (CD34+CD38+),[1],high
same,binding to CB lineage committed cells (CD34−CD38+),[1],modest
same,binding to HSC and progenitors isolated from human BM,[2],efficiently bound
same,"binding through α9β1 on huNSG BM committed cells, progenitors and HSC",[3],significant binding through α9β1 only occurred on HSC
same,labelling of BM progenitor cells and HSC after injection,[4],Increased cell-associated fluorescence
same,increase in PB progenitors (LSK) and HSC (LSKSLAM),[5],moderate increases
same,affinity for α4β1 integrin,[6],high affinity
same,affinity for α9β1 integrin,[7],high affinity
